Reference: ChEMBL document CHEMBL1149117, “Synthesis and monoamine transporter binding of 2-(diarylmethoxymethyl)-3 beta-aryltropane derivatives” (J Med Chem, 2004)

What was measured:
[1] = molecular target: Sodium-dependent dopamine transporter (Rattus norvegicus, UniProt P23977); assay: Binding affinity against dopamine transporter by using [3H]WIN-35428 as a radioligand
[2] = molecular target: T1, Muscarinic acetylcholine receptor M1 (Rattus norvegicus, UniProt P08482); assay: Binding affinity against Muscarinic acetylcholine receptor M1 by using [3H]pirenzepine as a radioligand
T1 sequence (P08482 whole entry): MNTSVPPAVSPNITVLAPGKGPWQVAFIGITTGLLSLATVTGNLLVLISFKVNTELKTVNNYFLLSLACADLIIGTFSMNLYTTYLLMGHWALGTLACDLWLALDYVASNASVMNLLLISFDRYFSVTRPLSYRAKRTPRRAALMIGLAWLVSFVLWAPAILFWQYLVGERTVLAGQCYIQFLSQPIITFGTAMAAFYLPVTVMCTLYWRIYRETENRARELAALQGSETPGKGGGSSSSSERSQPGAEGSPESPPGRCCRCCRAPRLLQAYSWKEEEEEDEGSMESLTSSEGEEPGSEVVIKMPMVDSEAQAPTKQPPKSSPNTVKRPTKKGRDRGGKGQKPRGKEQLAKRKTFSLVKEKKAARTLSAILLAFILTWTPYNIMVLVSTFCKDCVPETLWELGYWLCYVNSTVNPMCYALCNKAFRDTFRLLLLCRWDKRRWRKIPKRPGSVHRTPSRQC

[3] = molecular target: Norepinephrine transporter (Rattus norvegicus, UniProt Q9WTR4); assay: Binding affinity against norepinephrine transporter by using [3H]nisoxetine as a radioligand
[4] = molecular target: Sodium-dependent serotonin transporter (Rattus norvegicus, UniProt P31652); assay: Binding affinity against serotonin transporter by using [3H]-citalopram as a radioligand
Chain of Sodium-dependent serotonin transporter (P31652 whole entry): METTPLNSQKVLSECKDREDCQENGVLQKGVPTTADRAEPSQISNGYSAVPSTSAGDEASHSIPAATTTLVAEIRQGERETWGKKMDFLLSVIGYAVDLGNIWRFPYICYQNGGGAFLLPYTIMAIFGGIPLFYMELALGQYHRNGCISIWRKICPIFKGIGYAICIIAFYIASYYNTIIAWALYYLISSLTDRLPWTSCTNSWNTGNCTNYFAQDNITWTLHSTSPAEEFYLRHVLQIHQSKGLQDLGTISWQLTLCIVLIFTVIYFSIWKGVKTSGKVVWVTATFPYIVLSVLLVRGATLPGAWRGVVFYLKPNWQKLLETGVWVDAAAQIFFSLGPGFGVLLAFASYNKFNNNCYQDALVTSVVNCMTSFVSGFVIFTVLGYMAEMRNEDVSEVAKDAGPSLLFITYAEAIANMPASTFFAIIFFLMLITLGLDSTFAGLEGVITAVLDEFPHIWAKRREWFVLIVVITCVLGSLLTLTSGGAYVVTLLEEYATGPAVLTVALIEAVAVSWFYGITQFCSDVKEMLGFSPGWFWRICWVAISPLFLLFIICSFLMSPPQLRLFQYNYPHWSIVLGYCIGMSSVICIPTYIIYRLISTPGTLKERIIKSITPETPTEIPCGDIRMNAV

Chain of Sodium-dependent dopamine transporter (P23977 whole entry): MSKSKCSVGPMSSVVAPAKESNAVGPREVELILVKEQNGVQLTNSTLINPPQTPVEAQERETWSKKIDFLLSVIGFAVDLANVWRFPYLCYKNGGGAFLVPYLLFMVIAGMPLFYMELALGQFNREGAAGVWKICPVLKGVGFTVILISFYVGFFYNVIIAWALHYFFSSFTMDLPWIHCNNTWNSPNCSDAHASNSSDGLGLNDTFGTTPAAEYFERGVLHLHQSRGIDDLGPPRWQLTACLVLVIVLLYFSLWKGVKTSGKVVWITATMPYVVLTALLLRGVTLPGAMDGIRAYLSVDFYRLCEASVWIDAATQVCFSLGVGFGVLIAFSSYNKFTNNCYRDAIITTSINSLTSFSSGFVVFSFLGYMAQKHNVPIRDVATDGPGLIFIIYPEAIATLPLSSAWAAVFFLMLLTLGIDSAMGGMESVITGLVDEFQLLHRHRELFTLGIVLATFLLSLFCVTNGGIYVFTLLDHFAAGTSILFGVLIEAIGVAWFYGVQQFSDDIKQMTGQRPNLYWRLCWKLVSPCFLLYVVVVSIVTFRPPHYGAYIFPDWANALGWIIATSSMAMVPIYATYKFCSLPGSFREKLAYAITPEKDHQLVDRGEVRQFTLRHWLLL
Chain of Norepinephrine transporter (Q9WTR4 whole entry): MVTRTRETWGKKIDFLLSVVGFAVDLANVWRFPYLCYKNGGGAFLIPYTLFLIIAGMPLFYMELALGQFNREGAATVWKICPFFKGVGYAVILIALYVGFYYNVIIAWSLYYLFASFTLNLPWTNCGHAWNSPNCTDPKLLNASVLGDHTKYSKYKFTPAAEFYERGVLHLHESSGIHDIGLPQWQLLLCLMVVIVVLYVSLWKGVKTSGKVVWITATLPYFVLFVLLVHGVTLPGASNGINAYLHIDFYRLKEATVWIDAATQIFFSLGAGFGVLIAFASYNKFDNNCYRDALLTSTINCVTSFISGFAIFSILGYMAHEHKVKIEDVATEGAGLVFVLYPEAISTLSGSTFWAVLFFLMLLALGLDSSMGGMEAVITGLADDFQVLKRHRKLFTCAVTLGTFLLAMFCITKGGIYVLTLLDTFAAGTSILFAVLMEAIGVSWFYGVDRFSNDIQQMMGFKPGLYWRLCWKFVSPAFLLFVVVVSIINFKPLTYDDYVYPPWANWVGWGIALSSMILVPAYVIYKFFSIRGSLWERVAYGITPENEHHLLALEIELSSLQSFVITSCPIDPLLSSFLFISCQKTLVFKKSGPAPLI

| Compound | Ki [1] [nM] | Ki [2] [nM] | Ki [3] [nM] | Ki [4] [nM] |
| --- | --- | --- | --- | --- |
| Cc1ccc(C2CC3CCC([C@@H]2COC(c2ccccc2)c2ccc(Cl)cc2)N3C)cc1 (some centres undefined) | 937 | 18200 | 22500 | 1000 |
| CN1C2CCC1[C@H](COC(c1ccccc1)c1ccccc1)C(c1ccc(Cl)cc1)C2 (some centres undefined) | 478 | 11500 | 4000 | 408 |
| Cc1ccc(C2CC3CCC([C@@H]2COC(c2ccccc2)c2ccccc2)N3C)cc1 (some centres undefined) | 455 | 12600 | 2610 | 530 |
| CN1C2CCC1[C@H](COC(c1ccc(F)cc1)c1ccc(F)cc1)C(c1ccc(Cl)cc1)C2 (some centres undefined) | 250 | 9930 | 52300 | 724 |
| CN1C2CCC1[C@H](COC(c1ccccc1)c1ccc(Cl)cc1)C(c1ccc(Cl)cc1)C2 (some centres undefined) | 553 | 9600 | 5600 | 1290 |
| Cc1ccc(C2CC3CCC([C@@H]2COC(c2ccc(F)cc2)c2ccc(F)cc2)N3C)cc1 (some centres undefined) | 690 | 9700 | 16000 | 786 |
| Cc1ccc(C2CC3CCC([C@H]2COC(c2ccccc2)c2ccc(Cl)cc2)N3C)cc1 (some centres undefined) | 80 | 31600 | 4400 | 443 |
| CN1C2CCC1[C@@H](COC(c1ccc(F)cc1)c1ccc(F)cc1)C(c1ccc(Cl)cc1)C2 (some centres undefined) | 99 | 16300 | 2890 | 245 |
| Cc1ccc(C2CC3CCC([C@H]2COC(c2ccc(F)cc2)c2ccc(F)cc2)N3C)cc1 (some centres undefined) | 62 | 15500 | 1830 | 233 |
| CN1C2CCC1C(CCCOC(c1ccc(F)cc1)c1ccc(F)cc1)C(c1ccccc1)C2 (centres undefined) | 60 |  |  |  |
| CN1C2CCC1[C@@H](COC(c1ccccc1)c1ccc(Cl)cc1)C(c1ccc(Cl)cc1)C2 (some centres undefined) | 76 | 39900 | 2060 | 462 |
| CN1C2CCC1[C@@H](COC(c1ccccc1)c1ccc(Cl)cc1)C(c1ccc(F)cc1)C2 (some centres undefined) | 112 |  |  |  |
| CN1C2CCC1[C@@H](COC(c1ccccc1)c1ccccc1)C(c1ccc(F)cc1)C2 (some centres undefined) | 49 |  |  |  |
| CN1C2CCC1[C@@H](COC(c1ccc(F)cc1)c1ccc(F)cc1)C(c1ccc(F)cc1)C2 (some centres undefined) | 63 |  |  |  |
| Cc1ccc(C2CC3CCC([C@H]2COC(c2ccccc2)c2ccccc2)N3C)cc1 (some centres undefined) | 34 | 10600 | 684 | 121 |
| CN1C2CCC1C(CCCOC(c1ccccc1)c1ccc(Cl)cc1)C(c1ccccc1)C2 (centres undefined) | 261 | 24600 |  | 45 |
| CN1C2CCC1C(CCCOC(c1ccccc1)c1ccccc1)C(c1ccccc1)C2 (centres undefined) | 139 | 7970 | 207 | 61 |
| CN1C2CCC1[C@@H](COC(c1ccccc1)c1ccccc1)C(c1ccc(Cl)cc1)C2 (some centres undefined) | 52 | 11000 | 1190 | 147 |
